pKi: −log10 of the molar value.
Legend:
[1] = molecular target: T1, elastase derived from human sputum (HSE) (Homo sapiens, UniProt P08246); test: In vitro inhibition of elastase (ONO-PO series); assay type: biochemical; conditions: substrate N-methoxysuccinyl-Ala-Ala-Pro-Val-p-nitroaniline, 37° C., pH 8.0, IC50 converted to Ki by Dixson plot
T1 construct: prepared from commercially available HSE (875 U/mg protein, SE-563, Elastin Product Co., Inc., Missouri, USA); purchased Elastin Product Co., Inc., Missouri, USA SE-563; host or cells: human sputum (natural enzyme)
T1 sequence (P08246 30-247 limits assumed): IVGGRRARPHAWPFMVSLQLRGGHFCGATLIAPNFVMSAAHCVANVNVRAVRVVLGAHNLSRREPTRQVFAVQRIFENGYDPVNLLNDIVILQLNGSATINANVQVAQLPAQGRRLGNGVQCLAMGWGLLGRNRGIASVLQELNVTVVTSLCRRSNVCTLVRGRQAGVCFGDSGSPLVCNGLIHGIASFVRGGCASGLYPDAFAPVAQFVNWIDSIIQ

[2] = test system: polymorphoneucleocyte (PMN); test: Extracellular Matrix (ECM) degradation assay; assay type: cell-based; conditions: PMN's stimulated with opsonized zymosan, 4 hr at 37° C.; for ECM DATA % Inhibition 1 uM / inhibition at 1 µM: 1 uM inhibitor; for ECM DATA % Inhibition 5 uM / inhibition at 5 µM: 5 uM inhibitor
Method in brief: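 Radiolabelled ([35S]sulfate/[3H]proline) ECM from R22 rat smooth muscle cells preincubated 30 min with 1 or 5 uM inhibitor in HBSS (<2% DMSO). PMNs (5×10^5/well) stimulated with serum-opsonized zymosan (10 particles/PMN), 4 h at 37 °C. Degradation = released over total ECM counts, minus PMN-free basal release.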

[3] = Blood level screening after oral dose; assay type: in vivo, Sprague-Dawley rats; conditions: rat, oral gavage 10 mg/kg; for concentration at 3 h: male, Sprague-Dawley, plasma, read-out: Plasma Levels (μM) 3 hr
Method in brief: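 Unfasted male Sprague-Dawley rats received 10 mg/kg by oral gavage in PEG, PEG-400 or PEG:H2O:EtOH. Plasma was solvent-extracted and the inhibitor measured by HPLC or LC/MS.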

[4] = molecular target: T2, human neutrophil elastase (HNE) (Homo sapiens, UniProt P08246); test: HNE Ki of CE compounds, tested as described in WO 96/16080; assay type: biochemical; conditions: read-out: HNE Ki
T2 sequence (P08246 30-267): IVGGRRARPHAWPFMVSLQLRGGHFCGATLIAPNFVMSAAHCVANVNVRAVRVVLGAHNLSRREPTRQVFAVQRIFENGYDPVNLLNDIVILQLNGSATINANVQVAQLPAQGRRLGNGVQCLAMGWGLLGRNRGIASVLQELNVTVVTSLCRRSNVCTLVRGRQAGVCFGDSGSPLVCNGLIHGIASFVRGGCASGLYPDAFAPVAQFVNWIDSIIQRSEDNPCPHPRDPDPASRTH

Question: With `CC(C)[C@@H](NC(=O)Cn1c(-c2ccccc2)nccc1=O)C(=O)c1nnc(C(C)(C)C)o1` [ONO-PO-732, 2-[6-Oxo-2-phenyl-1,6-dihydro-1-pyrimidinyl]-N-[1-(2-[5-tert-butyl-1,3,4-oxadiazolyl]carbonyl)-2-(R)-methylpropyl]acetamide] as the compound, how does the pKi [1] read?
Answer: 7.21

Question: With `COc1ccc(-c2nnc(C(=O)[C@@H](NC(=O)Cn3c(-c4ccc(F)cc4)ncc(N)c3=O)C(C)C)o2)cc1` [ONO-PO-699, 2-[5-Amino-6-oxo-2-(4-fluorophenyl)-1,6-dihydro-1-pyrimidinyl]-N-[1-(2-[5-(4-methoxyphenyl)-1,3,4-oxadiazolyl]carbonyl)-2-(S)-methylpropyl]acetamide] as the compound, how does the pKi [1] read?
Answer: 7.67

Question: With `Cc1cccc(Cc2nnc(C(=O)[C@@H](NC(=O)Cn3c(-c4ccc(F)cc4)ncc(NS(C)(=O)=O)c3=O)C(C)C)o2)c1` [ONO-PO-702, 2-[5-(Methylsulfonyl)amino-6-oxo-2-(4-fluorophenyl)-1,6-dihydro-1-pyrimidinyl]-N-[1-(2-[5-(3-methylbenzyl)-1,3,4-oxadiazolyl]carbonyl)-2-(S)-methylpropyl]acetamide] as the compound, how does the pKi [1] read?
Answer: 8.75

Question: With `CC(C)[C@H](NC(=O)Cn1c(-c2ccc(F)cc2)ncc(N)c1=O)C(=O)c1nnc(-c2ccccc2)o1` [ONO-PO-694, 2-[5-Amino-6-oxo-2-(4-fluorophenyl)-1,6-dihydro-1-pyrimidinyl]-N-[1-(2-[5-phenyl-1,3,4-oxadiazolyl]carbonyl)-2-(S)-methylpropyl]acetamide] as the compound, how does the pKi [1] read?
Answer: 7.61

Question: With `CC(C)[C@H](NC(=O)Cn1c(-c2cccnc2)ncc(N)c1=O)C(=O)c1nnc(C(C)(C)C)o1` [ONO-PO-712, 2-[5-Amino-6-oxo-2-(3-pyridyl)-1,6-dihydro-1-pyrimidinyl]-N-[1-(2-[5-tert-butyl-1,3,4-oxadiazolyl]carbonyl)-2-(S)-methylpropyl]acetamide] as the compound, how does the pKi [1] read?
Answer: 7.78

Question: With `CC(C)c1nnc(C(=O)[C@@H](NC(=O)Cn2c(-c3ccc(F)cc3)ncc(N)c2=O)C(C)C)o1` [ONO-PO-705, 2-[5-Amino-6-oxo-2-(4-fluorophenyl)-1,6-dihydro-1-pyrimidinyl]-N-[1-(2-[5-isopropyl-1,3,4-oxadiazolyl]carbonyl)-2-(S)-methylpropyl]acetamide] as the compound, how does the pKi [1] read?
Answer: 7.97

Question: With `CC(C)[C@H](NC(=O)Cn1c(-c2ccc(F)cc2)nccc1=O)C(=O)c1nnc(C2(C)CC2)o1` [ONO-PO-734, 2-[6-Oxo-2-(4-fluorophenyl)-1,6-dihydro-1-pyrimidinyl]-N-[1-(2-[5-(1-methylcyclopropyl)-1,3,4-oxadiazolyl]carbonyl)-2-(S)-methylpropyl]acetamide] as the compound, how does the pKi [1] read?
Answer: 7.36

Question: With `CC(C)[C@H](NC(=O)Cn1c(-c2ccc(F)cc2)ncc(NC(=O)OCc2ccccc2)c1=O)C(=O)c1nnc(C(C)(C)c2ccccc2)o1` [ONO-PO-690, 2-[5-(Benzyloxycarbonyl)amino-6-oxo-2-(4-fluorophenyl)-1,6-dihydro-1-pyrimidinyl]-N-[1-(2-[5-(α,α-dimethylbenzyl)-1,3,4-oxadiazolyl]carbonyl)-2-(S)-methylpropyl]acetamide] as the compound, how does the pKi [1] read?
Answer: 7.11

Question: With `CC(C)[C@H](NC(=O)Cn1c(-c2ccccc2)nccc1=O)C(=O)c1nnc(C(C)(C)C)o1` [ONO-PO-730, 2-[6-Oxo-2-phenyl-1,6-dihydro-1-pyrimidinyl]-N-[1-(2-[5-tert-butyl-1,3,4-oxadiazolyl]carbonyl)-2-(S)-methylpropyl]acetamide] as the compound, how does the pKi [1] read?
Answer: 7.63

Question: With `CC(C)[C@H](NC(=O)[C@@H]1CCCN1C(=O)[C@@H](NS(C)(=O)=O)C(C)C)C(=O)c1nnc(C(C)(C)c2ccccc2)o1` [ONO-PO-710, Methylsulfonyl-L-valyl-N-[1-(2-[5-(α,α-dimethylbenzyl)-1,3,4-oxadiazolyl]carbonyl)-2-(S)-methylpropyl]-L-prolinamide] as the compound, how does the pKi [1] read?
Answer: 8.62

Question: With `CC(C)[C@H](NC(=O)Cn1c(-c2cccnc2)ncc(N)c1=O)C(=O)c1nnc(C(C)(C)c2ccccc2)o1` [ONO-PO-715, 2-[5-Amino-6-oxo-2-(3-pyridyl)-1,6-dihydro-1-pyrimidinyl]-N-[1-(2-[5-(α,α-dimethylbenzyl)-1,3,4-oxadiazolyl]carbonyl)-2-(S)-methylpropyl]acetamide] as the compound, how does the pKi [1] read?
Answer: 8.45

Question: With `CC(C)[C@H](NC(=O)Cn1c(-c2ccc(F)cc2)ncc(N)c1=O)C(=O)c1nnc(-c2cccnc2)o1` [ONO-PO-695, 2-[5-Amino-6-oxo-2-(4-fluorophenyl)-1,6-dihydro-1-pyrimidinyl]-N-[1-(2-[5-(3-pyridyl)-1,3,4-oxadiazolyl]carbonyl)-2-(S)-methylpropyl]acetamide] as the compound, how does the pKi [1] read?
Answer: 7.86

Question: With `CC(C)[C@H](NC(=O)Cn1c(-c2ccc(F)cc2)ncc(NC(=O)OCc2ccccc2)c1=O)C(=O)c1nnc(-c2ccccc2)o1` [ONO-PO-697, 2-[5-(Benzyloxycarbonyl)amino-6-oxo-2-(4-fluorophenyl)-1,6-dihydro-1-pyrimidinyl]-N-[1-(2-[5-phenyl-1,3,4-oxadiazolyl]carbonyl)-2-(S)-methylpropyl]acetamide] as the compound, how does the pKi [1] read?
Answer: 7.56

Question: With `CC(C)[C@H](NC(=O)Cn1c(-c2ccc(F)cc2)ncc(NC(=O)OCc2ccccc2)c1=O)C(=O)c1nnc(C(C)(C)C)o1` [ONO-PO-698, 2-[5-(Benzyloxycarbonyl)amino-6-oxo-2-(4-fluorophenyl)-1,6-dihydro-1-pyrimidinyl]-N-[1-(2-[5-tert-butyl-1,3,4-oxadiazolyl]carbonyl)-2-(S)-methylpropyl]acetamide] as the compound, how does the pKi [1] read?
Answer: 9.11

Question: Which results are given for `Cc1cccc(Cc2nnc(C(=O)[C@@H](NC(=O)CN3C(=O)NC(C)(C)C3=O)C(C)C)o2)c1` [CE2239, 4,4-Dimethyl-2,5-imidazolidinedione-N-[1-(2-[5-(3-methylbenzyl)-1,3,4-oxadiazolyl]carbonyl)-2-(S)-methylpropyl]acetamide]?
Answer: ECM DATA % Inhibition 1 uM [2]: 11.9%; ECM DATA % Inhibition 5 uM [2]: 11.3%; Plasma Levels (μM) 1 hr [3]: 1.46 µM; Plasma Levels (μM) 3 hr [3]: 1.15 µM; Plasma Levels (μM) 6 hr [3]: 0.71 µM; pKi [4]: 7.37

Question: For `Cc1cccc(Cc2nnc(C(=O)[C@@H](NC(=O)CN3C(=O)N[C@H](CC(C)C)C3=O)C(C)C)o2)c1` [CE2246, 4-(R)-(2-Isobutyl)-2,5-imidazolidinedione-N-[1-(2-[5-(3-methylbenzyl)-1,3,4-oxadiazolyl]carbonyl)-2-(S)-methylpropyl]acetamide], which “ECM DATA % Inhibition 1 uM” value [2] is on record?
Answer: −2.3%

Question: What about the “ECM DATA % Inhibition 5 uM” value [2] of the same compound?
Answer: 32.6%

Question: And the “Plasma Levels (μM) 1 hr” value [3]?
Answer: 1.182 µM

Question: And the “Plasma Levels (μM) 3 hr” value [3]?
Answer: 0.837 µM

Question: And the “Plasma Levels (μM) 6 hr” value [3]?
Answer: 0.496 µM

Question: What about the pKi [4] of the same compound?
Answer: 7.73

Question: Which inhibition at 1 µM [2] does the source give for `CC(C)[C@H](NC(=O)[C@@H]1CCCN1C(=O)[C@@H](NC(=O)OCc1ccccc1)C(C)C)C(=O)c1nnc(Cc2ccc(N(C)C)cc2)o1` [CE2100, (Benzyloxycarbonyl)-L-valyl-N-[1-(2-[5-(4-Dimethylaminobenzyl)-1,3,4-oxadiazolyl]carbonyl)-2-(S)-methylpropyl]-L-prolinamide] here?
Answer: 57.6%

Question: And the inhibition at 5 µM [2]?
Answer: 56.6%

Question: What about the concentration at 3 h [3] of the same compound?
Answer: 0.064 µM

Question: What about the pKi [4] of the same compound?
Answer: 10.16

Question: For `Cc1cccc(Cc2nnc(C(=O)C(NC(=O)CN3C(=O)C(Cc4ccccc4)N(CCN4CCOCC4)C3=O)C(C)C)o2)c1` [CE2184, 1-(N-Morpholinoethyl)-5-(S)-benzyl-2,4-imidazolidinedione-N-[1-(2-[5-(3-methylbenzyl)-1,3,4-oxadiazolyl]carbonyl)-2-(R,S)-methylpropyl]acetamide], which inhibition at 1 µM [2] is on record?
Answer: 30.5%

Question: And the inhibition at 5 µM [2]?
Answer: 32.4%

Question: What about the concentration at 3 h [3] of the same compound?
Answer: 0.57 µM

Question: And the pKi [4]?
Answer: 8.09

Question: With `Cc1cccc(Cc2nnc(C(=O)C(NC(=O)CN3C(=O)C(N)N=C(c4ccccc4)c4ccccc43)C(C)C)o2)c1` [CE2134, (R,S)-3-Amino-2-oxo-5-phenyl-1,4,-benzodiazepine-N-[1-(2-[5-(3-methylbenzyl)-1,3,4-oxadiazolyl]carbonyl)-2-(S)-methylpropyl]acetamide] as the compound, how does the inhibition at 1 µM [2] read?
Answer: 21.7%

Question: And the inhibition at 5 µM [2]?
Answer: 25.7%

Question: What about the concentration at 3 h [3] of the same compound?
Answer: 5.02 µM

Question: And the pKi [4]?
Answer: 8.70

Question: Which results are given for `Cc1cccc(Cc2nnc(C(=O)C(NC(=O)CN3C(=O)C(NC(=O)OCc4ccccc4)N=C(c4ccccc4Cl)c4cc(Cl)ccc43)C(C)C)o2)c1` [CE2230, (R,S)-3-Benzyloxycarbonylamino-2-oxo-5-(2-chlorophenyl)-1,4-(2′-chlorobenzodiazepine)-N-[1-(2-[5-(3-methylbenzyl)-1,3,4-oxadiazolyl]carbonyl)-2-(R,S)-methylpropyl]acetamide]?
Answer: ECM DATA % Inhibition 1 uM [2]: 37.7%; ECM DATA % Inhibition 5 uM [2]: 37.8%; Plasma Levels (μM) 3 hr [3]: 0 µM; pKi [4]: 8.59
